{"source": "BigSolDB 2.1", "data": [{"smiles": "CS(=O)(=O)c1cccc(C[C@H](NC(=O)c2c(Cl)cc3c(c2Cl)CCN(C(=O)c2ccc4ccoc4c2)C3)C(=O)O)c1", "values": [{"measurement": "solubility (mole fraction)", "setting": "in PEG-400, 288.15 K", "value": 0.0757}, {"measurement": "solubility (mole fraction)", "setting": "in PEG-400, 293.15 K", "value": 0.0767}, {"measurement": "solubility (mole fraction)", "setting": "in PEG-400, 298.15 K", "value": 0.0776}, {"measurement": "solubility (mole fraction)", "setting": "in PEG-400, 303.15 K", "value": 0.0786}, {"measurement": "solubility (mole fraction)", "setting": "in PEG-400, 308.15 K", "value": 0.0796}, {"measurement": "solubility (mole fraction)", "setting": "in glycerin, 288.15 K", "value": 0.000104}, {"measurement": "solubility (mole fraction)", "setting": "in glycerin, 293.15 K", "value": 0.000118}, {"measurement": "solubility (mole fraction)", "setting": "in glycerin, 298.15 K", "value": 0.000133}, {"measurement": "solubility (mole fraction)", "setting": "in glycerin, 303.15 K", "value": 0.000151}, {"measurement": "solubility (mole fraction)", "setting": "in glycerin, 308.15 K", "value": 0.000167}, {"measurement": "solubility (mole fraction)", "setting": "in propylene glycol, 288.15 K", "value": 0.00102}, {"measurement": "solubility (mole fraction)", "setting": "in propylene glycol, 293.15 K", "value": 0.00119}, {"measurement": "solubility (mole fraction)", "setting": "in propylene glycol, 298.15 K", "value": 0.00138}, {"measurement": "solubility (mole fraction)", "setting": "in propylene glycol, 303.15 K", "value": 0.00161}, {"measurement": "solubility (mole fraction)", "setting": "in propylene glycol, 308.15 K", "value": 0.00183}, {"measurement": "solubility (mole fraction)", "setting": "in transcutol, 288.15 K", "value": 0.015}, {"measurement": "solubility (mole fraction)", "setting": "in transcutol, 293.15 K", "value": 0.0159}, {"measurement": "solubility (mole fraction)", "setting": "in transcutol, 298.15 K", "value": 0.0168}, {"measurement": "solubility (mole fraction)", "setting": "in transcutol, 303.15 K", "value": 0.0178}, {"measurement": "solubility (mole fraction)", "setting": "in transcutol, 308.15 K", "value": 0.0187}, {"measurement": "solubility (mole fraction)", "setting": "in water, 288.15 K", "value": "1.49e-06"}, {"measurement": "solubility (mole fraction)", "setting": "in water, 293.15 K", "value": "1.85e-06"}, {"measurement": "solubility (mole fraction)", "setting": "in water, 298.15 K", "value": "2.31e-06"}, {"measurement": "solubility (mole fraction)", "setting": "in water, 303.15 K", "value": "2.79e-06"}, {"measurement": "solubility (mole fraction)", "setting": "in water, 308.15 K", "value": "3.37e-06"}]}]}
